Test results from US20090143279A1 (priority 2007, published 2009).
Structures can show the parent of a compound that is named as a salt. Where two headings read alike, the source gives them in different places.

How the values were obtained:
mtOXPHOS transcripts = format: cell-based, mouse; conditions: for mitoOX (composite Z-score): normalized score vs mock-treated (DMSO) wells
OXPHOS gene expression = format: cell-based, mouse; conditions: for GE-HTS (composite Z-score): normalized score vs mock-treated (DMSO) wells
[1] = test system: cellular dehydrogenase activity; conditions: for MTT (composite Z-score): normalized score vs mock-treated (DMSO) wells
[2] = test system: mitochondrial membrane potential; format: cell-based, mouse; conditions: for ΔΨm (composite Z-score): normalized score vs mock-treated (DMSO) wells
C2C12 myotubes = conditions: for Viability (composite Z-score): normalized score vs mock-treated (DMSO) wells
cytochrome c = format: cell-based, mouse; conditions: for cyt c (composite Z-score): normalized score vs mock-treated (DMSO) wells
Chain of cytochrome c (P62897 whole entry): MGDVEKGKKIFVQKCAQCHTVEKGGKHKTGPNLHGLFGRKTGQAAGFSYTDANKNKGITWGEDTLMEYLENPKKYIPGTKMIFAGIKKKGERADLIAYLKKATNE

reactive oxygen species = format: cell-based, mouse; conditions: for ROS (composite Z-score): normalized score vs mock-treated (DMSO) wells
nuOXPHOS transcripts = format: cell-based, mouse; conditions: for nucOX (composite Z-score): normalized score vs mock-treated (DMSO) wells
[3] = composite Z-score vs DMSO, Conc 20 μM
[4] = normalized composite Z-score vs mock-treated (DMSO) wells, Conc 20 μM
[5] = composite Z-score vs mock-treated (DMSO) wells, Conc 20 μM
[6] = 20 μM, composite Z-score vs DMSO
[7] = composite Z-score vs DMSO wells, Conc 20 μM
[8] = composite Z-score vs mock-treated (DMSO) wells, concentration of each compound in μM

Compound: CC1(O)CC2C(CC1O)C2(C)C (centres unmarked) [3,4-dihydroxycarane]
- mitoOX (mtOXPHOS transcripts; [3]): −1.620
- GE-HTS (OXPHOS gene expression; [3]): −1.265
- MTT [1, 3]: −0.697
- ΔΨm [2, 3]: −0.659
- Viability (C2C12 myotubes; [3]): 0.448
- cyt c (cytochrome c; [3]): 0.475
- ROS (reactive oxygen species; [3]): 0.697
- nucOX (nuOXPHOS transcripts; [3]): −0.951

Compound: Oc1cc(O)c2c(c1)O[C@H](c1ccc(O)c(O)c1)[C@H](O)C2 [epicatechin, reference compound]
- mitoOX (mtOXPHOS transcripts; [3]): 0.641
- mitoOX (mtOXPHOS transcripts; [4]): −0.631
- GE-HTS (OXPHOS gene expression; [3]): 0.431
- GE-HTS (OXPHOS gene expression; [4]): −0.754
- MTT [1, 3]: −1.915
- MTT [1, 4]: −1.556
- ΔΨm [2, 3]: −2.452
- ΔΨm [2, 4]: −1.802
- Viability (C2C12 myotubes; [3]): −1.380
- Viability (C2C12 myotubes; [4]): 0.687
- cyt c (cytochrome c): 0.446
- cyt c (cytochrome c; [3]): 0.110
- cyt c (cytochrome c; [4]): 0.850
- ROS (reactive oxygen species; [3]): −0.465
- ROS (reactive oxygen species; [4]): −0.199
- nucOX (nuOXPHOS transcripts; [3]): 0.310
- nucOX (nuOXPHOS transcripts; [4]): −0.773

Compound: CCC[C@H]1CC2=C(C[C@@H](CC)CC3=C1C(=O)OC3=O)C(=O)OC2=O [byssochlamic acid]
- mitoOX (composite Z-score) (mtOXPHOS transcripts; Conc 20 μM): −0.458
- GE-HTS (composite Z-score) (OXPHOS gene expression; Conc 20 μM): −0.230
- MTT (composite Z-score) ([1]; Conc 20 μM): −0.488
- ΔΨm (composite Z-score) ([2]; Conc 20 μM): −0.092
- Viability (composite Z-score) (C2C12 myotubes; Conc 20 μM): −0.241
- cyt c (composite Z-score) (cytochrome c; Conc 20 μM): −1.053
- ROS (composite Z-score) (reactive oxygen species; Conc 20 μM): 0.253
- nucOX (composite Z-score) (nuOXPHOS transcripts; Conc 20 μM): −0.069

Compound: CC(=O)O[C@H]1C[C@@H](OC(C)=O)C(C)(C)C2CC(=O)[C@]3(C)C(CC[C@@]4(C)[C@H](c5ccoc5)OC(=O)[C@H]5O[C@]543)[C@]21C (some centres unmarked) [7-deacetoxy-7-oxokhivorin]
- mitoOX (mtOXPHOS transcripts; [5]): 0.738
- GE-HTS (OXPHOS gene expression; [5]): 0.777
- MTT [1, 5]: −0.095
- ΔΨm [2, 5]: 0.258
- Viability (C2C12 myotubes; [5]): 0.053
- cyt c (cytochrome c; [5]): −0.184
- ROS (reactive oxygen species; [5]): 0.070
- nucOX (nuOXPHOS transcripts; [5]): 0.690

Compound: O=[N+]([O-])NC1=NCCN1Cc1ccc(Cl)nc1 [imidacloprid]
- mitoOX (mtOXPHOS transcripts; [3]): −0.368
- GE-HTS (OXPHOS gene expression; [3]): −0.294
- MTT [1, 3]: −0.893
- ΔΨm [2, 3]: −0.019
- Viability (C2C12 myotubes; [3]): −0.121
- cyt c (cytochrome c; [3]): 0.607
- ROS (reactive oxygen species; [3]): 0.075
- nucOX (nuOXPHOS transcripts; [3]): −0.214

Compound: gentamicin sulfate
- mitoOX (mtOXPHOS transcripts; [3]): 0.188
- GE-HTS (OXPHOS gene expression; [3]): −0.117
- MTT [1, 3]: −0.150
- ΔΨm [2, 3]: −1.213
- Viability (C2C12 myotubes; [3]): −0.804
- cyt c (cytochrome c; [3]): −0.896
- ROS (reactive oxygen species; [3]): 0.369
- nucOX (nuOXPHOS transcripts; [3]): −0.267

Compound: N#CC(=Cc1cccc(O)c1)C(=O)O [alpha-cyano-3-hydroxycinnamic acid]
- mitoOX (mtOXPHOS transcripts; [6]): −0.285
- GE-HTS (OXPHOS gene expression; [6]): −0.747
- MTT [1, 6]: −0.323
- ΔΨm [2, 6]: −0.165
- Viability (C2C12 myotubes; [6]): −0.861
- cyt c (cytochrome c; [6]): 0.349
- ROS (reactive oxygen species; [6]): 0.452
- nucOX (nuOXPHOS transcripts; [6]): −0.903

Compound: CC(=O)O[C@H]1C[C@H](O[C@H]2[C@@H](O)C[C@H](O[C@H]3[C@@H](O)C[C@H](O[C@H]4CC[C@@]5(C)[C@H](CC[C@@H]6[C@@H]5C[C@@H](O)[C@]5(C)[C@@H](C7=CC(=O)OC7)CC[C@]65O)C4)O[C@@H]3C)O[C@@H]2C)O[C@H](C)[C@H]1O[C@@H]1O[C@H](CO)[C@@H](O)[C@H](O)[C@H]1O [lanatoside C]
- mitoOX (mtOXPHOS transcripts; [7]): −0.935
- GE-HTS (OXPHOS gene expression; [7]): −0.931
- MTT [1, 7]: −0.887
- ΔΨm [2, 7]: −1.105
- Viability (C2C12 myotubes; [7]): −0.704
- cyt c (cytochrome c; [7]): 0.664
- ROS (reactive oxygen species; [7]): −0.033
- nucOX (nuOXPHOS transcripts; [7]): −0.844

Compound: CC1(C)C2CC(=O)O[C@@]3(C)C4=CC(=O)O[C@@H](c5ccoc5)[C@]4(C)CCC3[C@@]2(C)C=C[C@H]1O (some centres unmarked) [deoxyandirobin lactone]
- mitoOX (mtOXPHOS transcripts; [5]): −1.179
- GE-HTS (OXPHOS gene expression; [5]): −1.510
- MTT [1, 5]: −1.509
- ΔΨm [2, 5]: −0.395
- Viability (C2C12 myotubes; [5]): 0.281
- cyt c (cytochrome c; [5]): 0.893
- ROS (reactive oxygen species; [5]): 0.837
- nucOX (nuOXPHOS transcripts; [5]): −1.558

Compound: CC(C)CCC[C@@H](C)[C@H]1CC[C@H]2[C@@H]3CCC4CCCC[C@]4(C)[C@H]3CC[C@]12C (some centres unmarked) [cholestane]
- mitoOX (mtOXPHOS transcripts; [3]): −0.640
- GE-HTS (OXPHOS gene expression; [3]): −0.678
- MTT [1, 3]: −1.057
- ΔΨm [2, 3]: −0.945
- Viability (C2C12 myotubes; [3]): 0.941
- cyt c (cytochrome c; [3]): 0.043
- ROS (reactive oxygen species; [3]): 0.155
- nucOX (nuOXPHOS transcripts; [3]): −0.651

Compound: C[C@]12CCC(=O)C(O)=C1CC[C@@H]1[C@@H]2CC[C@]2(C)C(=O)CC[C@@H]12 [formestane]
- mitoOX (mtOXPHOS transcripts; [3]): 0.121
- GE-HTS (OXPHOS gene expression; [3]): 0.097
- MTT [1, 3]: −0.725
- ΔΨm [2, 3]: −0.608
- Viability (C2C12 myotubes; [3]): −0.582
- cyt c (cytochrome c; [3]): −0.115
- ROS (reactive oxygen species; [3]): 1.013
- nucOX (nuOXPHOS transcripts; [3]): 0.050

Compound: CCC(=O)OC1[C@@H]2CC3=C4CC(=O)O[C@@H](c5ccoc5)[C@]4(C)CCC3[C@@](C)(C2=O)[C@@H](CC(=O)OC)C1(C)C (some centres unmarked) [khayasin C]
- mitoOX (mtOXPHOS transcripts; [5]): 1.232
- GE-HTS (OXPHOS gene expression; [5]): 0.442
- MTT [1, 5]: −1.678
- ΔΨm [2, 5]: −0.095
- Viability (C2C12 myotubes; [5]): −1.021
- cyt c (cytochrome c; [5]): −0.654
- ROS (reactive oxygen species; [5]): −0.078
- nucOX (nuOXPHOS transcripts; [5]): 0.033

Compound: CN1CCC[C@H]1c1cccnc1 [nicotine]
- mitoOX (mtOXPHOS transcripts): −1.705
- GE-HTS (OXPHOS gene expression): −1.360
- MTT [1]: −1.228
- ΔΨm [2]: −0.423
- Viability (C2C12 myotubes): −0.093
- cyt c (cytochrome c): 0.348
- ROS (reactive oxygen species): 0.503
- nucOX (nuOXPHOS transcripts): −1.032

Compound: C=C[C@@](C)(O)CC[C@H]1C(=C)C[C@H](O)[C@H]2C(C)(C)CCC[C@]12C [larixol]
- mitoOX (composite Z-score) (mtOXPHOS transcripts; Conc 20 μM): −0.552
- GE-HTS (composite Z-score) (OXPHOS gene expression; Conc 20 μM): −0.507
- MTT (composite Z-score) ([1]; Conc 20 μM): −0.221
- ΔΨm (composite Z-score) ([2]; Conc 20 μM): −0.141
- Viability (composite Z-score) (C2C12 myotubes; Conc 20 μM): 0.085
- cyt c (composite Z-score) (cytochrome c; Conc 20 μM): 0.944
- ROS (composite Z-score) (reactive oxygen species; Conc 20 μM): 1.068
- nucOX (composite Z-score) (nuOXPHOS transcripts; Conc 20 μM): −0.466

Compound: CC(=O)O[C@@H]1CC2C(C)(C)[C@H](O)CC[C@]2(C)C2CC[C@@]3(C)[C@H](c4ccoc4)OC(=O)C4OC43[C@@]21C (stereo partly drawn) [3alpha-hydroxydeoxodihydrogedunin]
- mitoOX (mtOXPHOS transcripts; [4]): −0.857
- GE-HTS (OXPHOS gene expression; [4]): −0.892
- MTT [1, 4]: −1.072
- ΔΨm [2, 4]: −0.061
- Viability (C2C12 myotubes; [4]): 0.065
- cyt c (cytochrome c; [4]): 1.091
- ROS (reactive oxygen species; [4]): 1.207
- nucOX (nuOXPHOS transcripts; [4]): −0.832

Compound: CN[C@@H](C)[C@H](O)c1ccccc1 [ephedrine]
- mitoOX (mtOXPHOS transcripts; [3]): −0.056
- GE-HTS (OXPHOS gene expression; [3]): −0.074
- MTT [1, 3]: −2.342
- ΔΨm [2, 3]: −0.834
- Viability (C2C12 myotubes; [3]): −0.536
- cyt c (cytochrome c; [3]): 0.077
- ROS (reactive oxygen species; [3]): 1.633
- nucOX (nuOXPHOS transcripts; [3]): −0.100

Compound: CC(C)(OC(=O)c1ccccc1)[C@@H]1Cc2cc3ccc(=O)oc3cc2O1 [felamidin]
- mitoOX (mtOXPHOS transcripts; [3]): 1.050
- GE-HTS (OXPHOS gene expression; [3]): 0.966
- MTT [1, 3]: −0.475
- ΔΨm [2, 3]: 0.600
- Viability (C2C12 myotubes; [3]): 0.224
- cyt c (cytochrome c; [3]): 0.921
- ROS (reactive oxygen species; [3]): 0.710
- nucOX (nuOXPHOS transcripts; [3]): 0.835

Compound: CCN(CCCc1ccccc1)CCCc1ccccc1 [alverine citrate]
- mitoOX (mtOXPHOS transcripts; [3]): −0.442
- GE-HTS (OXPHOS gene expression; [3]): −0.238
- MTT [1, 3]: −0.018
- ΔΨm [2, 3]: 0.433
- Viability (C2C12 myotubes; [3]): 0.885
- cyt c (cytochrome c; [3]): −0.433
- ROS (reactive oxygen species; [3]): 1.116
- nucOX (nuOXPHOS transcripts; [3]): −0.098

Compound: C=Cc1c(C)c2cc3nc(c4c5[n-]c(cc6nc(cc1[n-]2)C(C)=C6CC)c(C)c5C(=O)[C@@H]4C(=O)OC)[C@@H](CCC(=O)O)[C@@H]3C.[Mg+2] [chlorophyllide]
- mitoOX (mtOXPHOS transcripts; [8]): 0.224
- GE-HTS (OXPHOS gene expression; [8]): 0.282
- MTT [1, 8]: 0.307
- ΔΨm [2, 8]: −0.783
- Viability (C2C12 myotubes; [8]): −0.178
- cyt c (cytochrome c; [8]): −1.157
- ROS (reactive oxygen species; [8]): 1.042
- nucOX (nuOXPHOS transcripts; [8]): 0.303
